In patent publication US12492188B2, “1H-benzo[D]imidazole derivatives as TLR9 inhibitors for the treatment of fibrosis” (BRISTOL-MYERS SQUIBB COMPANY, priority 2020, dated 2025):
Like-named read-outs stand apart in the source and are kept apart here.

Key:
Type in all cases: cell-based
[1] = target: T1, human TLR9 (Homo sapiens, UniProt Q9NR96); assay: TLR9 inhibition reporter assay (HEK-Blue cells, secreted embryonic alkaline phosphatase reporter)
T1 construct: host or cells: HEK-Blue cells (HEK293-derived reporter line)
T1 sequence (Q9NR96 26-1032): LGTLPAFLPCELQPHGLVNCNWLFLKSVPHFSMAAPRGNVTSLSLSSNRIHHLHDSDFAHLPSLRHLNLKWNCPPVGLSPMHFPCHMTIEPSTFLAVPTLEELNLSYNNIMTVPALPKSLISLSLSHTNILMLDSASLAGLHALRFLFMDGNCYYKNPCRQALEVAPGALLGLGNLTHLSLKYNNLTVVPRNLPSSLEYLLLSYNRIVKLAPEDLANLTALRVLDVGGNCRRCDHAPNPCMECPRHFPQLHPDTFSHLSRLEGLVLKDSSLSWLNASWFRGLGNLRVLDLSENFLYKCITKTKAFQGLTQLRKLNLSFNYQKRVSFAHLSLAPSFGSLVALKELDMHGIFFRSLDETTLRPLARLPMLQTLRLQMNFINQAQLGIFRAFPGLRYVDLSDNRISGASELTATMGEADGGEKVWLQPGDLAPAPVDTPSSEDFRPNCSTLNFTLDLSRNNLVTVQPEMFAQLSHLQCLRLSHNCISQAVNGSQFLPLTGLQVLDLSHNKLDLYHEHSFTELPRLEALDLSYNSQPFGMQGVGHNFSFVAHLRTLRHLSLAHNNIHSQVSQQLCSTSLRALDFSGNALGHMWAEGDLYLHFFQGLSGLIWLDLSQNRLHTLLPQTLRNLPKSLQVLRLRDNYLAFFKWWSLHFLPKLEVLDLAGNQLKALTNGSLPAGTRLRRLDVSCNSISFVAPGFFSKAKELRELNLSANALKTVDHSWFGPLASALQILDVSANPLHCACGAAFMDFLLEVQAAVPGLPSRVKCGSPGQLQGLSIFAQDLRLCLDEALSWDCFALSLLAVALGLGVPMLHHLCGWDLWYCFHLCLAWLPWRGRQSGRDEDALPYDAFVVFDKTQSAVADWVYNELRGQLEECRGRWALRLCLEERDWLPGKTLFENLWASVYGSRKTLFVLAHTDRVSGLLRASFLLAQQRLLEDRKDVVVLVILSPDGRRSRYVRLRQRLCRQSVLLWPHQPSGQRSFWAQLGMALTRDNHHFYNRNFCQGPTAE
Summary of the method: (§1)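 Agonist-driven SEAP output was measured in HEK-Blue reporter cells carrying human TLR7 (gardiquimod 7.5 μM), TLR8 (R848 15.9 μM) or TLR9 (ODN2006 5 nM). Compounds at 0.05 nM–50 μM final were added 30 min before stimulation at room temperature. After 22 h at 37 °C, percent inhibition was taken against agonist/DMSO wells and a reference inhibitor.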

[2] = target: T2, human TLR7 (Homo sapiens, UniProt Q9NYK1); assay: TLR7 inhibition reporter assay (HEK-Blue cells, secreted embryonic alkaline phosphatase reporter); conditions: HEK-Blue cells overexpressing human TLR7, stimulated with gardiquimod 7.5 μM; read-out: TLR 7 IC50
T2 construct: host or cells: HEK-Blue cells (HEK293-derived reporter line)
T2 sequence (Q9NYK1 27-1049): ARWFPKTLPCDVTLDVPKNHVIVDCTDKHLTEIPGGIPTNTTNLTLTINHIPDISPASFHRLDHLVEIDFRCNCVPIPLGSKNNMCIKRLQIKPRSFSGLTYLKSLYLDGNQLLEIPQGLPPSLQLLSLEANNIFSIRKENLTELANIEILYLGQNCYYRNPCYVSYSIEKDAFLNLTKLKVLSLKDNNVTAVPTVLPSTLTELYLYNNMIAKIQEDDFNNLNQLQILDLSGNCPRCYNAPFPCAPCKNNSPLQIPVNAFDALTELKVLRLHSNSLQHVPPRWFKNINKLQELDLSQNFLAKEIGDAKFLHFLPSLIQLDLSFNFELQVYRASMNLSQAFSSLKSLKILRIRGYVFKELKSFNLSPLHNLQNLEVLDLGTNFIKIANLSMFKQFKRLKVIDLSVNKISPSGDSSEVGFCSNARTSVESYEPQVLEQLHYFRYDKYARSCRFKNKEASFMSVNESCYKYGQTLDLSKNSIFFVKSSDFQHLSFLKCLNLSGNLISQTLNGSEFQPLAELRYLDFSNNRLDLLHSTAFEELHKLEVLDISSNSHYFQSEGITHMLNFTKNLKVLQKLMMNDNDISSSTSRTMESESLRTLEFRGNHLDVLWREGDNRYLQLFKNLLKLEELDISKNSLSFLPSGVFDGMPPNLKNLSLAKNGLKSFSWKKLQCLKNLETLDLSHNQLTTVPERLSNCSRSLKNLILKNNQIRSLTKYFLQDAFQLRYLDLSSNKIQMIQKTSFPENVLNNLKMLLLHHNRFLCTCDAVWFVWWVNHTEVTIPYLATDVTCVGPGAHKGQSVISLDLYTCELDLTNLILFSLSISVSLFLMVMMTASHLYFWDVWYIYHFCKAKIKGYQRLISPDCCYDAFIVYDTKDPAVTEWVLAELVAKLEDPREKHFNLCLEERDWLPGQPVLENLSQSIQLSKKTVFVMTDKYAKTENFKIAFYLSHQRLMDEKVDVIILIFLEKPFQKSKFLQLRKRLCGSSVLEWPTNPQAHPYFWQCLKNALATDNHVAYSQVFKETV
Summary of the method: as §1

[3] = target: T3, human TLR8 (Homo sapiens, UniProt Q9NR97); assay: TLR8 inhibition reporter assay (HEK-Blue cells, secreted embryonic alkaline phosphatase reporter); conditions: HEK-Blue cells overexpressing human TLR8, stimulated with R848 15.9 μM; read-out: TLR 8 IC50
T3 construct: host or cells: HEK-Blue cells (HEK293-derived reporter line)
T3 sequence (Q9NR97 27-1041): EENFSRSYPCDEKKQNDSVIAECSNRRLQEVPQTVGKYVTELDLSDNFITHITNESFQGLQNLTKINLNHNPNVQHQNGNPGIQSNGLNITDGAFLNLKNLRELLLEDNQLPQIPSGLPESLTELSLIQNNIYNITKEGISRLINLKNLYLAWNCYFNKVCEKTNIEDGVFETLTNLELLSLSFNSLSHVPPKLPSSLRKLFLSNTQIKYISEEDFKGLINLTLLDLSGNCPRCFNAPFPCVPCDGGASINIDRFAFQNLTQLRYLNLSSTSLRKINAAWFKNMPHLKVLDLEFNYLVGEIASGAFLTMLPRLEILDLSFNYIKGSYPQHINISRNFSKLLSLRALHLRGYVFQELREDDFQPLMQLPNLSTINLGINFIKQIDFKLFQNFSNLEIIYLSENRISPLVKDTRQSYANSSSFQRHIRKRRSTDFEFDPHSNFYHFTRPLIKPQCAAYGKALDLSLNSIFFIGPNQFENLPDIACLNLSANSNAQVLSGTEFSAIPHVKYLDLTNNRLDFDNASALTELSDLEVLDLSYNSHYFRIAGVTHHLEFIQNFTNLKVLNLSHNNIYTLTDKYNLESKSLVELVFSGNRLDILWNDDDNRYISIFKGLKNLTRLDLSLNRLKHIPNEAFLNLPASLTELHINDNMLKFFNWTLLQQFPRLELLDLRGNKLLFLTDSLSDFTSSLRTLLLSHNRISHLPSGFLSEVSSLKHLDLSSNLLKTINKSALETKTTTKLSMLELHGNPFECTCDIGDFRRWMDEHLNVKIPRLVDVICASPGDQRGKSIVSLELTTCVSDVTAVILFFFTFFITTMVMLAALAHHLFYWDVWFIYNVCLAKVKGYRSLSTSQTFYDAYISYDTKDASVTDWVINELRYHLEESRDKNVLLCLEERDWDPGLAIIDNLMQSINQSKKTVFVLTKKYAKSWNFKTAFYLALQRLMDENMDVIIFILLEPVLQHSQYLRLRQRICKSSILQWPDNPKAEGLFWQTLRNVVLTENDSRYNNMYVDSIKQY
Summary of the method: as §1

[4] = HEK-Blue cells overexpressing human TLR9, stimulated with ODN2006 5 nM, 22 hour incubation, reporter readout
[5] = HEK-Blue cells overexpressing human TLR9, stimulated with ODN2006 5 nM, read-out: TLR 9 IC50

IC50 [1, 4] | IC50 [1, 5] | IC50 [2] | IC50 [3] | IC50 [1] | Structure (SMILES)
420 nM | 421 nM | 24000 nM | > 50000 nM | – | Cc1cc(C2CCN(C3CCN(C4CC4)CC3)CC2)cc2c1nc(-c1ccc(S(C)(=O)=O)cc1)n2C [Example 53, 6-(1′-cyclopropyl-[1,4′-bipiperidin]-4-yl)-1,4-dimethyl-2-(4-(methylsulfonyl)phenyl)-1H-benzo[d]imidazole]
170 nM | 610 nM | 18000 nM | > 50000 nM | – | COc1ccc(-c2nc3c(C)cc(C4CCN(C5CCN(C6CC6)CC5)CC4)cc3n2C)cc1OC [Example 46, 6-(1′-cyclopropyl-[1,4′-bipiperidin]-4-yl)-2-(3,4-dimethoxyphenyl)-1,4-dimethyl-1H-benzo[d]imidazole tris(2,2,2-trifluoroacetate)]
130 nM | 129 nM | 4800 nM | > 50000 nM | – | Cc1cc(C2CCN(C3CCN(CC(C)C)CC3)CC2)cc2c1nc(-c1ccc(S(C)(=O)=O)cc1)n2C [Example 52, 6-(1′-isobutyl-[1,4′-bipiperidin]-4-yl)-1,4-dimethyl-2-(4-(methylsulfonyl)phenyl)-1H-benzo[d]imidazole]
100 nM | 104 nM | 2700 nM | 1200 nM | – | Cc1cc(-c2ccc(C3CCN(C4CCN(C5CC5)CC4)CC3)cc2)cc2c1nc(-c1ccc(S(C)(=O)=O)cc1)n2C [Example 401, 6-(4-(1′-cyclopropyl-[1,4′-bipiperidin]-4-yl)phenyl)-1,4-dimethyl-2-(4-(methylsulfonyl)phenyl)-1H-benzo[d]imidazole]
– | 158 nM | 14200 nM | > 50000 nM | 160 nM | Cn1c(-c2ccc(S(C)(=O)=O)cc2)nc2cc(C3CCN(C4CCN(CC5CC5)CC4)CC3)c(F)cc21 [Example 242, 5-(1′-(cyclopropylmethyl)-[1,4′-bipiperidin]-4-yl)-6-fluoro-1-methyl-2-(4-(methylsulfonyl)phenyl)-1H-benzo[d]imidazole]
140 nM | – | 39200 nM | > 50000 nM | – | CC(C)N1C2CCC1CC(N1CCC(c3ccc4nc(-c5ccc(S(C)(=O)=O)cc5)n(C)c4c3F)CC1)C2 (single isomer, unassigned) [Example 104, 7-fluoro-6-(1-(8-isopropyl-8-azabicyclo[3.2.1]octan-3-yl)piperidin-4-yl)-1-methyl-2-(4-(methylsulfonyl)phenyl)-1H-benzo[d]imidazole]
46 nM | 46 nM | 800 nM | 5000 nM | – | Cc1cc(-c2cccc(CN3CCC(N4CCCC4)CC3)c2)cc2c1nc(-c1ccc(S(C)(=O)=O)cc1)n2C1CC1 [Example 407, 1-cyclopropyl-4-methyl-2-(4-(methylsulfonyl)phenyl)-6-(3-((4-(pyrrolidin-1-yl)piperidin-1-yl)methyl)phenyl)-1H-benzo[d]imidazole]
62 nM | – | 39900 nM | > 50000 nM | – | CC(C)N1C2CCC1CC(N1CCC(c3cc4nc(-c5ccc(S(C)(=O)=O)cc5)n(C)c4cc3F)CC1)C2 (single isomer, unassigned) [Example 100, 6-fluoro-5-(1-(8-isopropyl-8-azabicyclo[3.2.1]octan-3-yl)piperidin-4-yl)-1-methyl-2-(4-(methylsulfonyl)phenyl)-1H-benzo[d]imidazole]
– | 290 nM | > 50000 nM | > 50000 nM | 290 nM | Cn1c(-c2ccc(S(C)(=O)=O)cc2)nc2cc(F)c(C3CCN(C4CCN(C5CCC5)CC4)CC3)cc21 [Example 223, 6-(1′-cyclobutyl-[1,4′-bipiperidin]-4-yl)-5-fluoro-1-methyl-2-(4-(methylsulfonyl)phenyl)-1H-benzo[d]imidazole]
300 nM | – | 5200 nM | > 50000 nM | – | Cc1cc(-c2ccc(N3CCN(C(C)C)CC3)cc2)cc2c1nc(-c1ccc(S(C)(=O)=O)cc1)n2C [Example 86, 6-(4-(4-isopropylpiperazin-1-yl)phenyl)-1,4-dimethyl-2-(4-(methylsulfonyl)phenyl)-1H-benzo[d]imidazole]
– | 82 nM | > 50000 nM | > 50000 nM | 82 nM | Cn1c(-c2ccc(S(C)(=O)=O)cc2)nc2c(F)c(C3CCN(C4CC5CCC(C4)N5CC4COC4)CC3)ccc21 (single isomer, unassigned) [Example 193, 4-fluoro-1-methyl-2-(4-(methylsulfonyl)phenyl)-5-(1-(8-(oxetan-3-ylmethyl)-8-azabicyclo[3.2.1]octan-3-yl)piperidin-4-yl)-1H-benzo[d]imidazole]
– | 5350 nM | > 50000 nM | > 50000 nM | 5400 nM | Cn1c(-c2ccc(S(C)(=O)=O)cc2)nc2cc(F)c(C3CCN(C4CCN(C5COC5)CC4)CC3)cc21 [Example 225, 5-fluoro-1-methyl-2-(4-(methylsulfonyl)phenyl)-6-(1′-(oxetan-3-yl)-[1,4′-bipiperidin]-4-yl)-1H-benzo[d]imidazole]
